Test system: Daudi-Cas9 cells
Assay: Cancer-T cell co-culture genome-wide CRISPR knockout screen (Vγ9Vδ2 T cell killing)
Assay type: cell-based, human
Details: for score: MAGeCK sgRNA test, co-culture screen; for LFC: log-fold change of sgRNA, surviving cells after co-culture vs baseline; for LFC / treat mean: MAGeCK; for treat mean: sgRNA abundance in surviving Daudi-Cas9 KO cells after 24 hours Vγ9Vδ2 T cell co-culture with zoledronate; for high_in_treatment: sgRNA enriched (TRUE) or depleted (FALSE) after T cell co-culture

Substance	score	LFC	treat mean	high_in_treatment
NLRC5_AGTCACGTGTCCTACCGTC: library sgRNA targeting NLRC5 (listed as DNA, chemistry not fully specified)	6.4705	1.0275	5262.4	TRUE
ALG12_TGCGATCACCACTGGCCCG: library sgRNA targeting ALG12 (listed as DNA, chemistry not fully specified)	6.0622	−3.0699	374.84	FALSE
PHB_GACCGATTCCGTGGAGTGC: library sgRNA targeting PHB (as printed in the source, key not given here)	6.0021	−3.7742	202.44	FALSE
OIP5_CGACTCGGTGCACCTCGCC: library sgRNA targeting OIP5 (as printed in the source, key not given here)	6.3045	−7.255	16.543	FALSE
SLC2A4_CAGGTCTGAAGCGCCTGAC: library sgRNA targeting SLC2A4 (listed as DNA, chemistry not fully specified)	6.0044	4.6166	47.773	TRUE
CCDC82_AAGAGCTTGATAGTAACAA: library sgRNA targeting CCDC82 (listed as DNA, chemistry not fully specified)	7.3303	4.8194	83.034	TRUE
MRPL28_TTCCCCCCGAATCCCAGCG: library sgRNA targeting MRPL28 (as printed in the source, key not given here)	7.2159	−3.2156	469.77	FALSE
FCRL2_ACTATTTCTGTAGTACCAA: library sgRNA targeting FCRL2 (listed as DNA, chemistry not fully specified)	6.1577	2.9186	417.46	TRUE
GMPPB_GCCGTGAGCTACATGTCGC: library sgRNA targeting GMPPB (listed as DNA, chemistry not fully specified)	6.4797	−2.6559	627.87	FALSE
RPP21_GCACTCACGTCTCTGGCGC: library sgRNA targeting RPP21 (as printed in the source, key not given here)	6.2576	−7.9412	9.6859	FALSE
BTN3A1_CAGGGCGGCGATCCACCTC: library sgRNA targeting BTN3A1 (listed as DNA, chemistry not fully specified)	11.298	2.049	3523.7	TRUE
BTN2A1_ATGAGGGGCCATGAAGACG: library sgRNA targeting BTN2A1 (listed as DNA, chemistry not fully specified)	7.3174	2.3876	1007.3	TRUE
IRF1_CACCTCCTCGATATCTGGC: library sgRNA targeting IRF1 (as printed in the source, key not given here)	8.8869	1.2122	7029.4	TRUE
MRPL9_CTCCACGATGACCGTGCCC: library sgRNA targeting MRPL9 (as printed in the source, key not given here)	6.5755	−4.3743	152.42	FALSE
SHMT2_CAACCTCACGACCGGATCA: library sgRNA targeting SHMT2 (listed as DNA, chemistry not fully specified)	5.9975	−5.253	63.415	FALSE
MED26_CCTCGGAACTCACGGCATG: library sgRNA targeting MED26 (as printed in the source, key not given here)	6.025	−1.9192	1185.6	FALSE
HISTIH3J_CACGCAAGGCCACGGTGCC: library sgRNA targeting HIST-1H3J (listed as DNA, chemistry not fully specified)	6.0349	1.0769	4138.5	TRUE
BTN3A1_AGAGTTGAGAGAAATGGCA: library sgRNA targeting BTN3A1 (listed as DNA, chemistry not fully specified)	18.173	2.7951	4251.1	TRUE

Substance	score	LFC	treat mean	high_in_treatment
NUP37_GCCAGCACACACTCATGCC: library sgRNA targeting NUP37 (listed as DNA, chemistry not fully specified)	5.9656	−1.9711	1092.8	FALSE
PSMG4_CACCTGCGCAACCTCGCCG: library sgRNA targeting PSMG4 (listed as DNA, chemistry not fully specified)	6.1467	−3.4412	279.92	FALSE
ALCAM_GTGTGCATGCTAGTAACTG: library sgRNA targeting ALCAM (listed as DNA, chemistry not fully specified)	6.8519	1.5404	2462.2	TRUE
ABCF1_AGCATCTCCGCTCATGGCA: library sgRNA targeting ABCF1 (listed as DNA, chemistry not fully specified)	5.9741	−2.7126	504.57	FALSE
DKK1_CGCTAGTCCCACCCGCGGA: library sgRNA targeting DKK1 (as printed in the source, key not given here)	6.0866	1.0785	4197.4	TRUE
BTN3A1_CTTCTTCAGGAGCGCCCAG: library sgRNA targeting BTN3A1 (listed as DNA, chemistry not fully specified)	19.78	2.2076	9150.3	TRUE
SPIB_CTGGGGCTACTGACGCGCG: library sgRNA targeting SPIB (as printed in the source, key not given here)	12.692	1.6241	7610.7	TRUE
TSC2_AGCATCTCATACACACGCG: library sgRNA targeting TSC2 (listed as DNA, chemistry not fully specified)	6.0284	−2.8218	463.96	FALSE
BTN2A1_TCTCCATGCCTGATGCAGA: library sgRNA targeting BTN2A1 (listed as DNA, chemistry not fully specified)	11.104	1.6551	5566.5	TRUE
SCO1_CACCCCCGTGGTCGCAGAA: library sgRNA targeting SCO1 (listed as DNA, chemistry not fully specified)	10.413	−3.6001	714.32	FALSE
SHMT2_TGCTCGACTTTTCCGGCCA: library sgRNA targeting SHMT2 (listed as DNA, chemistry not fully specified)	6.1486	−3.7292	220.66	FALSE
GTF2A2_AGCACTGGCTCAGAGGGTC: library sgRNA targeting GTF2A2 (listed as DNA, chemistry not fully specified)	6.6409	−6.616	29.574	FALSE
IFFO1_GGCCTGGGTCGTCGCGACC: library sgRNA targeting IFFO1 (as printed in the source, key not given here)	5.9717	4.5353	68.011	TRUE
FBXW7_TTCTTCCAACTGTCCTTGC: library sgRNA targeting FBXW7 (as printed in the source, key not given here)	7.5154	1.1042	6114.5	TRUE
NAPG_GCAAAAGATGCCTGCCTGA: library sgRNA targeting NAPG (listed as DNA, chemistry not fully specified)	6.3569	−6.2732	33.086	FALSE
AARS2_ATCCGCCTACCCCGCTCCA: library sgRNA targeting AARS2 (listed as DNA, chemistry not fully specified)	6.7194	−4.9928	99.765	FALSE
SAE1_TGCTTCTTGTCGGCTTGAA: library sgRNA targeting SAE1 (listed as DNA, chemistry not fully specified)	7.1879	−7.4222	19.337	FALSE

Reference: patent publication US20240115705A1, “Regulation of Butyrophilin subfamily 3 member A1 (BTN3A1, CD277)” (The J. Gladstone Institutes, a testamentary trust …, priority 2021, published 2024)
